Here are results for eight substances from US7176280B2, “Isolated polypeptides and compositions from the venom of P. transvaalicus and methods of use” (The Regents of the University of California, priority 2001, dated 2007).

For series [1] the following is noted: cited from earlier work.
Series [2] concerns Male Swiss-Webster mice. Kind of series: Mouse injection bioassay (intracerebroventricular; also subcutaneous, intraperitoneal). The class given is in vivo. The following applies: for symptoms in injected mice (in words): intracerebroventricular injection, dose not given or as in the words; for symptoms in mice: 7–8 week old male Swiss-Webster mice; for Mouse (IC) high dose / Mouse (IC) low dose: preliminary biological activity. As to the method:
(§1) Bioassays: Male Swiss-Webster mice were purchased from Charles River, Inc., and housed at the Animal Housing Facility, UC Davis. Blowfly (Sarcophaga spp.), crickets (Acheta domesticus) and Anole lizards (Anoles caroliensis) were purchased from Carolina Biologicals (Burlington, N.C.). Cotton bollworms (Heliothis virescens) were obtained from USDA/ARS (Stoneville, […].) and reared on artificial diet. Collected fractions were tested on mice by intracerebroventricular injections and by injecting last instar blowfly larvae. Third instar cotton bollworms and adult common house crickets were also used in screening for insecticidal components. Briefly, fractions were concentrated to dryness using a Heto Speed Vac (ATR, Inc. Emeryville, Calif.). Dried samples were resuspended in 10 μl 20 mM ammonium acetate buffer with 1 μg/μl BSA and incubated overnight at 4° C. to insure proper refolding before injection to the test animals. Mice were anesthetized using ethyl ether and intracerebroventricular injections of peptide solutions were executed immediately. […] All symptoms were observed and recorded up to 24 hours post injection. All experiments were carried out in accordance with the guidelines laid down by the National Institutes of Health in the USA regarding the care and use of experimental animals.
Next, the biological activities of Ikitoxin and Birtoxin were compared. Mouse biological activity was evaluated by intracerebroventricular injections of 7–8 week old male Swiss-Webster mice using […] purified toxin.
The biological activities of dortoxin, bestoxin, and ikitoxin were evaluated in blowfly larvae, tobacco budworm larvae, and mice. Blowfly larvae, tobacco budworm larvae were injected with 1 μL of fraction or toxin solution in water. The effects were observed and recorded up to 24 hrs post injection. The toxins to were also injected to mice (swiss-webster male 4–6 week old mice) through an intracerebroventricular route (brain). The mice were anesthetized using ethyl ether then injected with various doses of 5 μL of test solution. The effects were again observed and recorded up to 24 hrs post injection. […] The experiments were terminated after 48 hrs of observation. […] Bestoxin is only two amino acid different from its sister peptide dortoxin. The MALDI determined molecular masses for dortoxin (6643 Da) and bestoxin (6603 Da) also agree with the two amino acid difference of Lys20 in dortoxin to Glu20 in bestoxin and Glu45 in dortoxin to Ser45 in bestoxin.

Another series has as its system rat brain synaptosomes. The class given is binding. Conditions: for pEC50: read-out: EC50 (effective concentration).
For series [3], the system named is sodium channel binding site 3. Kind of series: Ion channel binding properties of birtoxin.
Series [4] relates to Blowfly (Sarcophaga spp.) larvae. Put plainly: Blowfly larvae injection bioassay. Type of series: in vivo. Conditions: for activity against blowfly (Sarcophaga) larvae (in words): injection into larvae. The protocol: Uctoxin HPLC Purification: Uctoxin was purified through three steps of RP-HPLC guided by insect and mouse bioassays. Initially the venom of P.transvaalicus was resuspended in solvent A (2% acetonitrile 98% water 0.1% TFA) and ran multiple times through a C4 magic bullet column hooked up to a Magic 2002 microbore HPLC System with a linear gradient of 2 to 65% solvent B (98% acetonitrile 2% water 0.1% TFA) in 15 minutes at a flow rate of 300 μL/min. as described above for ikitoxon. UV trace at 214 and 280 nm was monitored. Fraction P3 from the first column was collected, several runs were pooled and freeze dried. This fraction was run on a Michrom C18 microbore column on the same system with a linear gradient of 2 to 65% solvent B in 30 minutes at a flow rate of 50 μL/min. Peak 2 from the C18 column was further purified by running it through a microbore phenyl column on the same system with the same gradient conditions. Purity was confirmed using MALDI-TOF MS. Biological activity of peptide was monitored by intracerebroventricular injection of mice and also injections of blowfly and tobacco budworm larvae. For bioassays uctoxin was purified and resuspended in 20 mM ammonium acetate buffer with 1 ug/ul BSA. (The 50% effective doses (ED50) were determined according to Reed and Muench (Reed L. J., Muench, S. 1938 Am.J.Hyg 27, 493–497.))
as §1
The biological activities of dortoxin, bestoxin, and ikitoxin were evaluated in blowfly larvae, tobacco budworm larvae, and mice. Blowfly larvae, tobacco budworm larvae were injected with 1 μL of fraction or toxin solution in water. The effects were observed and recorded up to 24 hrs post injection. The toxins to were also injected to mice (swiss-webster male 4–6 week old mice) through an intracerebroventricular route (brain). The mice were anesthetized using ethyl ether then injected with various doses of 5 μL of test solution. The effects were again observed and recorded up to 24 hrs post injection. […] The MALDI determined molecular masses for dortoxin (6643 Da) and bestoxin (6603 Da) also agree with the two amino acid difference of Lys20 in dortoxin to Glu20 in bestoxin and Glu45 in dortoxin to Ser45 in bestoxin.

Another series has as its system Insect Lepidoptera. Put plainly: Parakinin in vivo assay on Lepidoptera. The following applies: preliminary biological activity. The text has this:
The preliminary biological activity of parakinins I investigated by in vivo assays conducted on insects and mice. Parakinins are active and potent against both invertebrates and vertebrates. These in vivo effects implicate potential pharmaceutical use and development. Due to the small nature of parakinins analogs of these peptides can be synthesized and tested very rapidly.

In series [5] the test system is Male Swiss-Webster mice. Put plainly: Mouse injection bioassay (intracerebroventricular; also subcutaneous, intraperitoneal). Conditions: preliminary biological activity. Type of series: in vivo.
Setting [6] is: intracerebroventricular, 0.2–1 mg purified toxin.

pEC50: −log10 of the molar value. Entries after “also recorded” stand apart in the source; their conditions may differ. No end group written: not given here. Bounds are passed on as bounds.

RPPGFSPFR [bradykinin]: the “destroyed on a single passage through the pulmonary circulation” value in series [1] (anesthetized rat) was 98%–99%. Moreover, in series [1] (rat, in vivo), the “half life in the systemic circulation” value is listed as “less than 30 seconds”.
Regarding “bestoxin (ADVPGNYPLDKDGNTYTCLELGENKDCQKVCKLHGVQYGYCYAFSCWCKEYLDDKDSV; listed as Parabuthus transvaalicus)”, in the series with Male Swiss-Webster mice [2] (intracerebroventricular), the “sensitivity to stimuli of injected mice” value is reported as “hypersensitive to stimuli”; the “state of the mice at the end of 48 hrs” value was “still live, dessicated, and exhausted but still continued to roll”. Besides, the “symptoms in injected mice (in words)” value with Male Swiss-Webster mice [2] was “contract, twist and roll around itself indefinitely”.
Take “birtoxin (ADVPGNYPLDKDGNTYKCFLLGGNEECLNVCKLHGVQYGYCYASKCWCEYLEDDKDVS; not fully specified; ends and bridges not checked)”: in the series with Male Swiss-Webster mice [2] (1 μg of pure birtoxin), the “effect of injection in mice” value is listed as “induced severe neurotoxic symptoms in mice up to 24 hours but was not lethal”. In addition, in the series on Male Swiss-Webster mice [2] (2 μg of pure peptide), the “effect of injection in mice” value is given as “lethal”. The “symptoms in injected mice (in words)” value in the series with Male Swiss-Webster mice [2] was “induced serious symptoms, including tremors, which lasted up to 24 hours post injection at submicrogram amounts”. Also, the symptoms in mice result in the series on Male Swiss-Webster mice [2] (setting [6]) is “convulsions, tremors, increased heart rate and finally death”. In the series with Male Swiss-Webster mice [2] (mouse, in vivo), the “lethality to mice (summary statement)” value is listed as “lethal to mice at low microgram quantities”. In the series with rat brain synaptosomes, the “enhancement of the binding of [3H] BTX” value is “about 4.32 fold” and the pEC50 is approximately 8.30. In series [3], the “sodium channel binding site and mode of action” value was “binds to sodium channel binding site 3 and blocks the sodium channel by prolonging the inactivation”.
For “dortoxin (ADVPGNYPLDKDGNTYTCLKLGENKDCQKVCKLHGVQYGYCYAFECWCKEYLDDKDSV; listed as Parabuthus transvaalicus)”, the “symptoms in injected mice (in words)” value in the series on Male Swiss-Webster mice [2] is “convulsions, tremors and death”. For the same substance, the LD99 in the series on Male Swiss-Webster mice [2] (intracerebroventricular, Swiss-Webster male 4–6 week old mice) is listed as < 0.5 μg/20 gr of mouse.
As to “ikitoxin (ADVPGNYPLDKDGNTYKCFLLGENEECLNVCKLHGVQYGYCYASKCWCEYLEDDKDVS; listed as Parabuthus transvaalicus)”, the “symptoms in injected mice (in words)” value with Male Swiss-Webster mice [2] is given as “induced periodic unprovoked jumps in injected mice”. Moreover, in the series on Male Swiss-Webster mice [2] (setting [6]), the “time course of the symptom” value was “Within three hours of injection the symptom gradually faded” and the symptoms in mice entry is on record as “periodic unprovoked jumps”. Further, the “initial frequency of unprovoked jumps” value with Male Swiss-Webster mice [2] (intracerebroventricular, 0.2–1 mg purified toxin, for 20 minutes) is reported as “about 3 jumps per minute”. Besides, the “lethality during the observation period” value with Male Swiss-Webster mice [2] (intracerebroventricular, range of injected doses 0.2–1 mg) was “did not show lethality”. Also, the “activity against blowfly (Sarcophaga) larvae (in words)” value (“activity against blowfly” below) in series [4] is on record as “not active against Sarcophaga”.
“parakinin-1 (PFIVPPFR; listed as Parabuthus transvaalicus)”: the “Insect Lepidoptera” value in the series with Insect Lepidoptera is “Contractive paralysis”. The “Mouse (SC)” value with Male Swiss-Webster mice [5] is “Hyperventilation,; also recorded: Hyperactivity”. In the series with Male Swiss-Webster mice [2], the “Mouse (IC) high dose” value is “Paralysis” and the “Mouse (IC) low dose” value was “Hyperventilation,; also recorded: Hyperactivity”. In series [4] (preliminary biological activity), the Insect blowfly entry was “Contractive paralysis”.
As for “parakinin-2 (PFVVPPFR; listed as Parabuthus transvaalicus)”, in the series with Male Swiss-Webster mice [5], the “Mouse (SC)” value is “Hyperactivity”. Also, in the series on Male Swiss-Webster mice [2], the “Mouse (IC) high dose” value was “Paralysis” and the “Mouse (IC) low dose” value is reported as “Hyperventilation,; also recorded: Hyperactivity”.
On to uctoxin, for which, in the series on Male Swiss-Webster mice [2], the “symptoms in injected mice (in words)” value is “consistent contraction and tremors”. For the same substance, the time to lethality in the series on Male Swiss-Webster mice [2] (intracerebroventricular, 0.5 μg of uctoxin) was not above 30 min. Further, the “activity against blowfly” value in series [4] is listed as “bioactivity only in the case of the first major peak”. For the same substance, in series [4] (listed as Uctoxin), the “activity against blowfly” value was “immediate flaccid paralysis”. Besides, the ED50 entry in series [4] (last instar Sarcophaga larvae, flaccid paralysis) is reported as “about 70 ng/100 mg larvae”. Moreover, in the series on rat brain synaptosomes, the “enhancement of the binding of [3H] BTX” value turned out to be 2 fold and the pEC50 was approximately 7.22.
